Measured values published in patent publication US5342604A (The Dow Chemical Company, priority 1992, dated 1994).
Where a name gives a salt, the structure may show the parent alone. Read-outs that look alike come from different tables or passages of the source. One block for each compound: values may come before it.

Key:
[1] = Percent complex determination, yttrium complexes (Sephadex C-25 cation exchange); type: physicochemical; settings: Y
Method: The yttrium and/or samarium complexes of several of the compounds were prepared and percent complexation determined as follows:
Complexes were made by preparing a 0.0003M yttrium solution in water. (YCl3 ·6H2 O, 303.26 g/mole; Y(OAc)3, 12.1% H2 0). Radioactive YCl3 (Oakridge National Laboratories) was added to give the desired number of counts. Ten μl of ligand solution (at 0.03M) were added to 990 μl of the Y solution, giving a ligand-to-metal ratio of 1:1. (Ten times the amount of ligand solution was used for a 10:1 ligand to metal ratio.) The pH was then adjusted to 7.4 using microliter quantities of hydrochloric acid or sodium hydroxide. The solution was then tested for the amount of complexed yttrium using the cation exchange method given below.
(§1) A disposable 10 ml plastic (Biorad) column was filled with 1 to 2 ml of water-swelled Sephadex™ C-25 cation exchange resin. The water was pressure eluted to the top of the resin. Fifteen μl of the complex (or more if counts were low) were added to the top of the resin. This was followed by 2 ml of 4:1 (V:V) isotonic saline:conc. ammonium hydroxide solution as an eluent which was allowed to drip into a counting tube. This was also pressure eluted to the top of the resin. An additional 2 ml of the eluent were added and the column pressure eluted to remove all liquid. The dried resin was then placed in a third counting tube and the three tubes counted on a NaI well counter using a Canberra multichannel analyzer linked to a computer. The percent complex was determined by dividing the number of counts in the two elutions by the total counts in the elutions plus the column, all times 100. By this method, uncomplexed yttrium was retained on the column.

[2] = Percent complex determination, samarium complexes (Sephadex C-25 cation exchange); type: physicochemical
Method: as §1, with “100.” for “100. By this method, uncomplexed yttrium was retained on the column.”
Samarium complexes were formed as described previously for yttrium complexes except that 0.0003M samarium was prepared by dissolution of Sm2 03 (348.7 g mole) in 0.1M hydrochloric acid. […] Percent complex determination was made in the same manner as for the yttrium complex.

[3] = Lability of yttrium complexes on addition of excess metal; type: physicochemical; settings: Y
Method: as §1
The 1:1 complex of yttrium with 1-(p-aminobenzyl)diethylenetriaminepentaacetic acid (ABDTPA), a well known bifunctional chelant used in the literature, and with the ligand of Example 2 (Now Ex. XVI) and Example 12 (now Ex. XVII) were prepared using the techniques described earlier. Several 100 microliter aliquots were then withdrawn into separate centrifuge tubes. Excess metal was added such that the total volume change is minimized and the time noted. One-half hour after metal addition, the percent complex was determined by the Sephadex™ C-25 method and this was compared to the original amount of complex. The percent complex versus added metal gives an indication as to the lability of the ligand-metal complex. Results are given below and are compared to the EDTA-yttrium complex.

[4] = rat, in vivo, iv, 120 min
Method: (§3) Also samarium was injected as samarium chloride in unchelated form.
(§4) Sprague-Dawley rats weighing from 150 to 200 g were purchased from Charles River Laboratories. These animals were placed in cages and fed water and food ad libitum. The animals were acclimated for at least five days before use. Prior to injection of complex, the animals were placed under a heat lamp (15 to 30 minutes) to dilate the tail vein. Then, the animal was placed in a restraining cage, the tail cleaned with an alcohol swipe, and the animal injected (50 to 200 μl) via the tail vein. After injection, the animal was placed in another cage for two hours after which time the animal was sacrificed by cervical dislocation. The animal was then dissected, the parts rinsed with deionized H2 O, patted dry, and weighed into a tared counting vial. Whatever size of injection was made, at least three standards of the same material were prepared and counted with the animal parts.

[5] = Inertness of samarium complex to pH change; type: physicochemical
Method: as §1
(§2) One portion was treated with 1-2 μl portions of 0.1N hydrochloric acid until the pH was lowered and the other portion was treated with 0.1N sodium hydroxide to bring the pH up. The complexes were allowed to set for 5-10 minutes at each pH change, then they were sampled to determine the percent complexation at that pH by the method described for Examples 16 through 33.
as §2, with “1-2 μportions” for “1-2 μl portions”, “of 1.0N” for “of 0.1N”, “with 0.1N, 1.0N and 50 weight %” for “with 0.1N”, “for about 5” for “for 5-10”

[6] = rat, in vivo, 120 min
Method: Complexes were prepared by mixing a solution of ligand and metal then adjusting the pH to 7-8. The amount of metal that was complexed to ligand was determined by cation exchange chromatography. Free metal was retained by the resin, metal in the form of a complex was not.
One-hundred μl of the complexes were injected into the tail vein of three Sprague Dawley rats. Two hours after injection, the rats were killed by cervical dislocation and samples of tissues were taken. The tissues were weighed and the amount of radiation in each tissue determined by measuring the number of counts using a NaI well counter and comparing them to standards. […] The amount in bone was 25 times the % dose in a femur. […] Non-radioactive metal was used to obtain the desired ligand to metal ratios and tracer radioactive metal was used to obtain the biodistribution.

[7] = In vivo screening of bifunctional chelates: biodistribution, percent injected dose in liver; settings: rat, i.v. tail vein, 2 hours
Method: as §3, §4

[8] = Sm, ligand/metal ratio about 50:1
[9] = Sm, ligand/metal ratio not stated

percent complexation ([2]; Sm, pH about 7, Example XXIII): 96%
% Complexed ([5]; Table VI, pH 1, about 5 minutes): 91%
% Complexed ([5]; Table VI, pH 2, about 5 minutes): 88%
% Complexed ([5]; Table VI, pH 3, about 5 minutes): 92%
% Complexed ([5]; Table VI, pH 5, about 5 minutes): 96%
% Complexed ([5]; Table VI, pH 7, about 5 minutes): 96%
% Complexed ([5]; Table VI, pH 9, about 5 minutes): 99%
% Complexed ([5]; Table VI, pH 12, about 5 minutes): 98%
% Complexed ([5]; Table VI, pH 13, about 5 minutes): 99%
Compound: 2-[{2-[(2{[B IS(CARBOXYMETHYL)]AMINO}ETHYL) (CARBOXYMETHYL) AMINO]ETHYL} (CARBOXYMETHYL) AMINO]-2-[5-AMINO-2-(CARBOXYMETHYLOXY)PHENYL]ETHANOIC ACID, SAMARIUM COMPLEX [XXIII]

% Complex ([1]; ligand/metal 10:1): 99%
% Injected Dose in Liver [4]: 0.38%
Compound: Nc1ccc(O)c(C(C(=O)O)N(CCN(CC(=O)O)CC(=O)O)CC(=O)O)c1 (stereo not shown) [Example 5, 2-[(2-{[BIS(CARBOXYMETHYL)]-AMINO}ETHYL) (CARBOXYMETHYL)AMINO]-2-(5-AMINO-2HYDROXYPHENYL)ETHANOIC ACID]

% Complex ([1]; ligand/metal 10:1): 99%
% Complex ([1]; ligand/metal ratio about 1:1): 98%
Compound: CC(=O)Nc1cc(CN(CCN(CC(=O)O)CC(=O)O)CC(=O)O)c(O)c(CN(CCN(CC(=O)O)CC(=O)O)CC(=O)O)c1 [Example 11]

% Complex ([1]; ligand/metal 10:1): 99%
% Injected Dose in Liver [4]: 0.37%
Compound: CC(=O)Nc1cc(CN(CCN(CC(=O)O)CC(=O)O)CC(=O)O)c(O)c(CN(CC(=O)O)CC(=O)O)c1 [Example 15, 2-({[BIS(CARBOXYMETHYL)]AMINO}METHYL)-6-{[({[BIS(CARBOXYMETHYL)]AMINO}ETHYL)((CARBOXYMETHYL)AMINO]METHYL}-4-(ACETAMIDO)PHENOL]

% Complex [2, 8]: > 99%
Compound: Nc1ccc(OCC(=O)O)c(C(C(=O)O)N(CCN(CCN(CC(=O)O)CC(=O)O)CC(=O)O)CC(=O)O)c1 (stereo not shown) [Example 8, 2-[{2-[(2-{[BIS(CARBOXYMETHYL)]-AMINO}ETHYL) (CARBOXYMETHYL) AMINO]ETHYL}(CARBOXYMETHYL)AMINO ]-2-[5-AMINO-2- CARBOXYMETHYLOXY)PHENYL]ETHANOIC ACID]

More lines, now with the values behind:

Compound: CC(=O)Nc1ccc(OCC(=O)O)c(C(C(=O)O)N(CCN(CC(=O)O)CC(=O)O)CC(=O)O)c1 (stereo not shown) [Example 2, 2-[(2-{[bis(carboxymethyl)]amino}ethyl) (carboxymethyl)amino]-2-[5-acetamido-2-(carboxymethyloxy)phenyl]ethanoic acid]
% Complex ([1]; ligand/metal 10:1): > 99%
% Complex ([2]; Sm, ligand/metal 10:1): > 99%
% Complex ([3]; Metal/Ligand Molar Ratio 1): 99%
% Complex ([3]; Metal/Ligand Molar Ratio 10, one-half hour after metal addition): 94%
% Complex ([3]; Metal/Ligand Molar Ratio 100, one-half hour after metal addition): 84%
% Complex ([3]; Metal/Ligand Molar Ratio 500, one-half hour after metal addition): 75%
% Injected Dose in Liver [4]: 0.22%

Compound: CC(=O)Nc1ccc(O)c(C(NCCN(CC(=O)O)CC(=O)O)C(=O)O)c1 (stereo not shown) [Example 1, 2-[(2-{[bis(carboxymethyl)]amino}ethyl)amino]-2-(5-acetamido-2-hydroxyphenyl)ethanoic acid]
% Complex ([1]; ligand/metal 10:1): 98%
% Injected Dose in Liver [4]: 0.87%
biodistribution, blood (% dose) [6]: 0.57%
biodistribution, bone (% dose) [6]: 56.1%
biodistribution, liver (% dose) [6]: 0.87%
biodistribution, muscle (% dose) [6]: 0.78%
biodistribution, spleen (% dose) [6]: 0.03%

Compound: 2-[bis(2-{[(bis(carboxymethyl)]amino}ethyl) amino]-2-[5-acetamido-2-(carboxymethyloxy)phenyl]ethanoic acid and 2-[{2-[(2-{[bis(carboxymethyl)]amino}ethyl)(carboxymethyl)amino]ethyl} (carboxymethyl)amino]-2-[5-acetamido-2-(carboxymethyloxy)phenyl]ethanoic acid [Example 6]
% Complex ([2]; Sm, ligand/metal 10:1): > 99%
% Injected Dose in Liver ([7]; Sm, ligand/metal 10:1): 0.38%

Compound: [Cl][Sm]([Cl])[Cl] [SmCl3, samarium chloride, reference compound]
% Injected Dose in Liver ([7]; Sm injected as samarium chloride in unchelated form): 39%

Compound: Nc1ccc(OCC(=O)O)c(C(C(=O)O)N(CCN(CC(=O)O)CC(=O)O)CC(=O)O)c1 (stereo not shown) [Example 3, 2-[(2-{[BIS(CARBOXYMETHYL)]AMINO}ETHYL) (CARBOXYMETHYL)AMINO]-2-[5-AMINO-2-(CARBOXYMETHYLOXY)PHENYL]ETHANOIC ACID, PENTA SODIUM SALT]
% Complex ([1]; ligand/metal 10:1): > 99%
% Injected Dose in Liver [4]: 0.22%

Compound: 2-[BIS(2-{[(BIS(CARBOXYMETHYL)]AMINO}ETHYL) AMINO]-2-[5-AMINO-2-(CARBOXYMETHYLOXY)PHENYL]ETHANOIC ACID AND 2-[{2-[(2-{[BIS(CARBOXYMETHYL)]AMINO}ETHYL)(CARBOXYMETHYL)AMINO]ETHYL} (CARBOXYMETHYL)AMINO]-2-[5-AMINO-2-(CARBOXYMETHYLOXY)PHENYL]ETHANOIC ACID [Example 7]
% Complex [2, 8]: 96%

Compound: Nc1ccc(O)c(C(NCCNC(C(=O)O)c2cc(N)ccc2O)C(=O)O)c1 (stereo not shown) [Example X, […][(2-HYDROXY-5AMINOPHENYL)ACETIC ACID], reference compound]
% Injected Dose in Liver [7, 9]: 24%

Compound: 2-[BIS(2-{[(BIS(CARBOXYMETHYL)] AMINO}ETHYL)AMINO]-2-[5-AMINO-2-(CARBOXYMETHYLOXY) PHENYL]ETHANOIC ACID AND 2-[{2-[(2{[BIS(CARBOXYMETHYL)]AMINO}ETHYL) (CARBOXYMETHYL)AMINO]ETHYL}(CARBOXYMETHYL)AMINO]-2-[5-AMINO-2-(CARBOXYMETHYLOXY)PHENYL]ETHANOIC ACID, SAMARIUM COMPLEX [XXII]
percent Sm that was complexed ([2]; about pH 7.5, Example XXII): 100%
% Complexed ([5]; Table V, pH 1, 5-10 minutes): 98%
% Complexed ([5]; Table V, pH 2, 5-10 minutes): 100%
% Complexed ([5]; Table V, pH 3, 5-10 minutes): 100%
% Complexed ([5]; Table V, pH 4, 5-10 minutes): 100%
% Complexed ([5]; Table V, pH 5, 5-10 minutes): 100%
% Complexed ([5]; Table V, pH 7, 5-10 minutes): 100%
% Complexed ([5]; Table V, pH 9, 5-10 minutes): 100%
% Complexed ([5]; Table V, pH 11, 5-10 minutes): 100%
% Complexed ([5]; Table V, pH 13, 5-10 minutes): 100%

Compound: CC(=O)Nc1ccc(O)c(CN(CCN(CC(=O)O)Cc2cc(NC(C)=O)ccc2O)CC(=O)O)c1 [Example U, N,N'-DI(2-HYDROXY, 5-ACETAMIDOBENZYL)ETHYLENEDIAMINE-N,N'-DIACETIC ACID, reference compound]
% Injected Dose in Liver [7, 9]: 12%

Compound: CC(=O)Nc1ccc(O)c(C(C(=O)O)N(CC#N)CCN(CC(=O)O)CC(=O)O)c1 (stereo not shown) [Example 4, 2-[(2-{[bis(carboxymethyl)]amino}ethyl) (cyanomethyl)amino]-2-(5-acetamido-2-hydroxyphenyl)ethanoic acid]
% Complex ([1]; ligand/metal 10:1): > 99%
% Injected Dose in Liver [4]: 1.4%

Compound: 2-[(2-[(2-[(2-{[BIS(CARBOXYMETHYL)]AMINO}ETHYL) (CARBOXYMETHYL)AMINO]ETHYL) (CARBOXYMETHYL)AMINO]ETHYL)(CARBOXYMETHYL)AMINO]-2-[5-ACETAMIDO2-(CARBOXYMETHYLOXY) PHENYL]ETHANOIC ACID AND 2[(2-[(2-{[BIS(CARBOXYMETHYL)]AMINO}ETHYL)(CARBOXYMETHYL) AMINO]ETHYL)(2-{[BIS(CARBOXYMETHYL)]AMINO}ETHYL)AMINO]-2-[5-ACETAMIDO-2-(CARBOXYMETHYLOXY) PHENYL]ETHANOIC ACID [Example 9]
% Complex ([2]; Sm, ligand/metal 10:1): > 99%
% Injected Dose in Liver ([7]; Sm, ligand/metal 10:1): 2.8%
